Molecular target: GST-tagged truncated human mutant G2019S LRRK2 (Homo sapiens (Human), UniProt Q5S007, G2019S)
Assay: LRRK2 Km ATP LanthaScreen Assay
Assay type: biochemical
Conditions: 134 μM ATP (Km ATP); fluorescein-labeled LRRKtide substrate; mean IC50 values
Procedure: Unless otherwise noted, all LRRK2 IC50 data presented in tables refers to the LRRK2 Km ATP LanthaScreen™ Assay that is described in the Biological Assay section.
Biological Assay: LRRK2 Km ATP LanthaScreen™ Assay
The LRRK2 kinase activity reported herein as IC50 values was determined with LanthaScreen™ technology from Life Technologies Corporation (Carlsbad, Calif.) using GST-tagged truncated human mutant G2019S LRRK2 in the presence of the fluorescein-labeled peptide substrate LRRKtide, also from Life Technologies. The data presented for the Km ATP LanthaScreen™ Assay represents mean IC50 values based on several test results and may have reasonable deviations depending on the specific conditions and reagents used. Assays were performed in the presence of 134 μM ATP (Km ATP). Upon completion, the assay was stopped and phosphorylated substrate detected with a terbium (Tb)-labeled anti-pERM antibody (cat. no. PV4898). The compound dose response was prepared by diluting a 10 mM stock of compound to a maximum concentration of 9.99 μM in 100% dimethylsulfoxide followed by custom fold serial dilution in dimethylsulfoxide nine times. Twenty nanoliters of each dilution was spotted via a Labcyte Echo onto a 384-well black-sided plate (Corning 3575) followed by 15 μl of a 1.25 nM enzyme solution in 1× assay buffer (50 mM Tris pH 8.5, 10 mM MgCl2, 0.01% Brij-35, 1 mM EGTA, 2 mM dithiothreitol, 0.05 mM sodium orthovanadate) Following a 15-minute incubation at room temperature, the kinase reaction was started with the addition of 5 μl of 400 nM fluorescein-labeled LRRKtide peptide substrate and 134 μM ATP solution in 1× assay buffer. The reaction was allowed to progress at ambient temperature for 90 minutes. The reaction was then stopped by the addition of 20 μl of TR-FRET Dilution Buffer (Life Technologies, Carlsbad, Calif.) containing 2 nM Tb-labeled anti-phospho LRRKtide antibody and 10 mM EDTA (Life Technologies, Carlsbad, Calif.). After an incubation of 1 hour at room temperature, the plate was read on an EnVision multimode plate reader (Perkin Elmer, Waltham, Mass.) with an excitation wavelength of 337 nm (Laser) and a reading emission at both 520 and 495 nm. Compound IC50s were interpolated from nonlinear regression best fits of the log of the final compound concentration, plotted as a function of the 520/495-nm emission ratio using Activity base. Abase uses a 4 parameter (4P) logistic fit based on the Levenberg-Marquardt algorithm.

Sequence of GST-tagged truncated human mutant G2019S LRRK2 (Q5S007 970-2527 G2019S): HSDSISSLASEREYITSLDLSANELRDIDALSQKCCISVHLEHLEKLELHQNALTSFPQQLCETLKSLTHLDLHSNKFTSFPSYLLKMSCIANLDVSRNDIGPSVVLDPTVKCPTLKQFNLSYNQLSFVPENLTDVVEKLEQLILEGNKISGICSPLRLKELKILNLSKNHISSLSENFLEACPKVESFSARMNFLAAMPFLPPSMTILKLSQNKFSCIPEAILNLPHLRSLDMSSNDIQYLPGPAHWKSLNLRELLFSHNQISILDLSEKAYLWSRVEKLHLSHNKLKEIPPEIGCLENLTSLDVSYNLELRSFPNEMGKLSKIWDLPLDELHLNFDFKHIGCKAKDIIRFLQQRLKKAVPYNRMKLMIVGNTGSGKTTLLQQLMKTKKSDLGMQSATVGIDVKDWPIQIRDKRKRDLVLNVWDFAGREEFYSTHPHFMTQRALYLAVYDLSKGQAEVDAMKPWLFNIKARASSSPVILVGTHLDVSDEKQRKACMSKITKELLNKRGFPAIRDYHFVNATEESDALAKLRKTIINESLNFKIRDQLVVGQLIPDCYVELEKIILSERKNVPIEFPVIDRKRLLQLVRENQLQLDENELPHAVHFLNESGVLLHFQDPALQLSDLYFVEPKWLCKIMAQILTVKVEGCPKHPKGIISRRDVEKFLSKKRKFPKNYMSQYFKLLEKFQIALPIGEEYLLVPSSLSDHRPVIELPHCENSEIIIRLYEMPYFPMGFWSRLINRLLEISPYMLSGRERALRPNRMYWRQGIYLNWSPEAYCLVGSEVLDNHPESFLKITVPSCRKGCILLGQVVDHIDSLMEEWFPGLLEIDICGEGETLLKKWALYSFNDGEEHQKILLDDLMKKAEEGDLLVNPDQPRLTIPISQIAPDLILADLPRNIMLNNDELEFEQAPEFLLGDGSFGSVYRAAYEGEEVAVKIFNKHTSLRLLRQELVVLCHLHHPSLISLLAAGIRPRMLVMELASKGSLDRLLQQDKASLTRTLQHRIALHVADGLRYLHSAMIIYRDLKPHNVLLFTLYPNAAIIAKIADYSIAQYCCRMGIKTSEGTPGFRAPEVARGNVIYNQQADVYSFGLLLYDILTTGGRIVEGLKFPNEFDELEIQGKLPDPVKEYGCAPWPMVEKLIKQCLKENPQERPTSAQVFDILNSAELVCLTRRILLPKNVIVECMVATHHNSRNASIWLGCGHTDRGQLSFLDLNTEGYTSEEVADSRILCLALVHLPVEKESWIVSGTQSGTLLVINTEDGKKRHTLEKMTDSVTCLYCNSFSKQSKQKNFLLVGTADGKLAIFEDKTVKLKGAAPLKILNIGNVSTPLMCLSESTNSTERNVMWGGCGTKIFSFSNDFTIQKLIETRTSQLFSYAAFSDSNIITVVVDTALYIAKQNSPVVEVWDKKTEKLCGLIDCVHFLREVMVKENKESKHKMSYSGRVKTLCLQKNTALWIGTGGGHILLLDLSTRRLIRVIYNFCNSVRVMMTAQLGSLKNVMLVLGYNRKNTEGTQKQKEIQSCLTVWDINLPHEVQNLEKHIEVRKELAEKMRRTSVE

| SMILES | IC50 |
| --- | --- |
| CN1CCN(c2cc(-n3ncc4ccc(C5(C#N)CC6(CC6)C5)cc43)ncn2)CC1CO (single isomer, unassigned) [Example 15, 5-(1-(6-(3-(hydroxymethyl)-4-methylpiperazin-1-yl)pyrimidin-4-yl)-1H-indazol-6-yl)spiro[2.3]hexane-5-carbonitrile] | 3.8 nM |
| CN1CCN(c2cc(-n3ncc4ccc(C5(C#N)CC6(CC6)C5)cc43)ncn2)CC1CO (single isomer, unassigned) [Example 16, 5-(1-(6-(3-(hydroxymethyl)-4-methylpiperazin-1-yl)pyrimidin-4-yl)-1H-indazol-6-yl)spiro[2.3]hexane-5-carbonitrile] | 1.2 nM |
| CC(C)(O)C1CN(c2cc(-n3ncc4ccc(C5(C#N)CC6(CC6)C5)cc43)ncn2)CC1F (single isomer, unassigned) [Example 22, 5-(1-(6-(3-fluoro-4-(2-hydroxypropan-2-yl)pyrrolidin-1-yl)pyrimidin-4-yl)-1H-indazol-6-yl)spiro[2.3]hexane-5-carbonitrile] | 3.7 nM |
| CC(C)(O)C1CN(c2cc(-n3ncc4ccc(C5(C#N)CC6(CC6)C5)cc43)ncn2)CC1F (single isomer, unassigned) [Example 23, 5-(1-(6-(3-fluoro-4-(2-hydroxypropan-2-yl)pyrrolidin-1-yl)pyrimidin-4-yl)-1H-indazol-6-yl)spiro[2.3]hexane-5-carbonitrile] | 4.6 nM |
| C[C@H]1CN(c2cc(-n3ncc4ccc(C5(C#N)CC6(CC6)C5)cc43)ncn2)CCN1C1CCOC1 (single isomer, unassigned) [Example 34] | 0.9 nM |
| C[C@H]1CN(c2cc(-n3ncc4ccc(C5(C#N)CC6(CC6)C5)cc43)ncn2)CCN1C1CCOC1 (single isomer, unassigned) [Example 35] | 3.5 nM |
| CC1C(C(C)(C)O)CCN1c1cc(-n2ncc3ccc(C4(C#N)CC5(CC5)C4)cc32)ncn1 (single isomer, unassigned) [Example 36, 5-(1-(6-(3-(2-hydroxypropan-2-yl)-2-methylpyrrolidin-1-yl)pyrimidin-4-yl)-1H-indazol-6-yl)spiro[2.3]hexane-5-carbonitrile] | 3.2 nM |
| CC1C(C(C)(C)O)CCN1c1cc(-n2ncc3ccc(C4(C#N)CC5(CC5)C4)cc32)ncn1 (single isomer, unassigned) [Example 37, 5-(1-(6-(3-(2-hydroxypropan-2-yl)-2-methylpyrrolidin-1-yl)pyrimidin-4-yl)-1H-indazol-6-yl)spiro[2.3]hexane-5-carbonitrile] | 138 nM |
| CC1C(C(C)(C)O)CCN1c1cc(-n2ncc3ccc(C4(C#N)CC5(CC5)C4)cc32)ncn1 (single isomer, unassigned) [Example 38, 5-(1-(6-(3-(2-hydroxypropan-2-yl)-2-methylpyrrolidin-1-yl)pyrimidin-4-yl)-1H-indazol-6-yl)spiro[2.3]hexane-5-carbonitrile] | 59 nM |
| CC1C(C(C)(C)O)CCN1c1cc(-n2ncc3ccc(C4(C#N)CC5(CC5)C4)cc32)ncn1 (single isomer, unassigned) [Example 39, 5-(1-(6-(3-(2-hydroxypropan-2-yl)-2-methylpyrrolidin-1-yl)pyrimidin-4-yl)-1H-indazol-6-yl)spiro[2.3]hexane-5-carbonitrile] | 1.2 nM |
| CN1CCOC2CN(c3cc(-n4ncc5ccc(C6(C#N)CC7(CC7)C6)cc54)ncn3)CC21 (single isomer, unassigned) [Example 40, 5-(1-(6-(4-methylhexahydropyrrolo[3,4-b][1,4]oxazin-6(2H)-yl)pyrimidin-4-yl)-1H-indazol-6-yl)spiro[2.3]hexane-5-carbonitrile] | 0.9 nM |
| CN1CCOC2CN(c3cc(-n4ncc5ccc(C6(C#N)CC7(CC7)C6)cc54)ncn3)CC21 (single isomer, unassigned) [Example 41] | 1.2 nM |
| CC1CC12CC(C#N)(c1ccc3cnn(-c4cc(N5CCN6CCOC[C@@H]6C5)ncn4)c3c1)C2 (single isomer, unassigned) [Example 50] | 4.4 nM |
| CC1CC12CC(C#N)(c1ccc3cnn(-c4cc(N5CCN6CCOC[C@@H]6C5)ncn4)c3c1)C2 (single isomer, unassigned) [Example 51] | 9.8 nM |
| CC1CC12CC(C#N)(c1ccc3cnn(-c4cc(N5CCN6CCOC[C@@H]6C5)ncn4)c3c1)C2 (single isomer, unassigned) [Example 52] | 2.4 nM |
| CC1C2(CC2)CC1(C#N)c1ccc2cnn(-c3cc(N4CCN5CCOC[C@@H]5C4)ncn3)c2c1 (single isomer, unassigned) [Example 53] | 7.9 nM |
| CC1C2(CC2)CC1(C#N)c1ccc2cnn(-c3cc(N4CCN5CCOC[C@@H]5C4)ncn3)c2c1 (single isomer, unassigned) [Example 54] | 1.7 nM |
| CC1C2(CC2)CC1(C#N)c1ccc2cnn(-c3cc(N4CCN5CCOC[C@@H]5C4)ncn3)c2c1 (single isomer, unassigned) [Example 55] | 34 nM |
| CC1C2(CC2)CC1(C#N)c1ccc2cnn(-c3cc(N4CCN5CCOC[C@@H]5C4)ncn3)c2c1 (single isomer, unassigned) [Example 56] | 3 nM |
| N#CC1(c2ccc3cnn(-c4cc(N5CC[C@@H](O)[C@@H](F)C5)ncn4)c3c2)CC2(CC2)C1 [Example 1, 5-(1-(6-((3S,4R)-3-fluoro-4-hydroxypiperidin-1-yl)pyrimidin-4-yl)-1H-indazol-6-yl)spiro[2.3]hexane-5-carbonitrile] | 4.4 nM |
| Cc1nc(N2CC[C@H](O)[C@@H](F)C2)cc(-n2ncc3ccc(C4(C#N)CC5(CC5)C4)cc32)n1 [Example 2, 5-(1-(6-((3S,4S)-3-fluoro-4-hydroxypiperidin-1-yl)-2-methylpyrimidin-4-yl)-1H-indazol-6-yl)spiro[2.3]hexane-5-carbonitrile] | 5.1 nM |
| Cc1nc(N2CC[C@H](O)[C@H](F)C2)cc(-n2ncc3ccc(C4(C#N)CC5(CC5)C4)cc32)n1 [Example 3, 5-(1-(6-((3R,4S)-3-fluoro-4-hydroxypiperidin-1-yl)-2-methylpyrimidin-4-yl)-1H-indazol-6-yl)spiro[2.3]hexane-5-carbonitrile] | 18 nM |
| Cc1nc(N2CC[C@@H](O)[C@@H](F)C2)cc(-n2ncc3ccc(C4(C#N)CC5(CC5)C4)cc32)n1 [Example 4, 5-(1-(6-((3S,4R)-3-fluoro-4-hydroxypiperidin-1-yl)-2-methylpyrimidin-4-yl)-1H-indazol-6-yl)spiro[2.3]hexane-5-carbonitrile] | 7.4 nM |
| Cc1nc(N2CC3(C(C)(C)O)CC2C3)cc(-n2ncc3ccc(C4(C#N)CC5(CC5)C4)cc32)n1 [Example 5, 5-(1-(6-(4-(2-hydroxypropan-2-yl)-2-azabicyclo[2.1.1]hexan-2-yl)-2-methylpyrimidin-4-yl)-1H-indazol-6-yl)spiro[2.3]hexane-5-carbonitrile] | 12.3 nM |
| N#CC1(c2ccc3cnn(-c4cc(N5CC[C@H](O)[C@@H](F)C5)ncn4)c3c2)CC2(CC2)C1 [Example 6, 5-(1-(6-((3S,4S)-3-fluoro-4-hydroxypiperidin-1-yl)pyrimidin-4-yl)-1H-indazol-6-yl)spiro[2.3]hexane-5-carbonitrile] | 6.2 nM |
| N#CC1(c2ccc3cnn(-c4cc(N5CC6(CO)CC5C6)ncn4)c3c2)CC2(CC2)C1 [Example 7, 5-(1-(6-(4-(hydroxymethyl)-2-azabicyclo[2.1.1]hexan-2-yl)pyrimidin-4-yl)-1H-indazol-6-yl)spiro[2.3]hexane-5-carbonitrile] | 1.5 nM |
| N#CC1(c2ccc3cnn(-c4cc(N5CC[C@@H](CO)C5)ncn4)c3c2)CC2(CC2)C1 [Example 8, (R)-5-(1-(6-(3-(hydroxy-methyl)pyrrolidin-1-yl)pyrimidin-4-yl)-1H-indazol-6-yl)spiro[2.3]hexane-5-carbonitrile] | 2.9 nM |
| COCC12CC(C1)N(c1cc(-n3ncc4ccc(C5(C#N)CC6(CC6)C5)cc43)ncn1)C2 [Example 9, 5-(1-(6-(4-(methoxymethyl)-2-azabicyclo[2.1.1]hexan-2-yl)pyrimidin-4-yl)-1H-indazol-6-yl)spiro[2.3]hexane-5-carbonitrile] | 9.3 nM |
| Cc1nc(N2CC[C@@H](C(C)(C)O)C2)cc(-n2ncc3ccc(C4(C#N)CC5(CC5)C4)cc32)n1 [Example 10, (R)-5-(1-(6-(3-(2-hydroxypropan-2-yl)pyrrolidin-1-yl)-2-methylpyrimidin-4-yl)-1H-indazol-6-yl)spiro[2.3]hexane-5-carbonitrile] | 3.8 nM |

From patent publication US11174248B2, “Indazolyl-spiro[2.3]hexane-carbonitrile derivatives as LRRK2 inhibitors, pharmaceutical compositions, and uses thereof” (Merck Sharp & Dohme Corp., priority 2017, dated 2021)
